{"source": "ChEMBL document CHEMBL1201862", "about": "“PubChem BioAssay data set” (2004)", "test_in_all_cases": "inhibition of tumour cell growth, NCI panel, 48 h", "key": {"[1]": {"system": "DLD-1"}, "[2]": {"system": "HT-29"}, "[3]": {"system": "SF-268"}, "[4]": {"system": "M14"}, "[5]": {"system": "NCI-H460"}, "[6]": {"system": "SNB-75"}, "[7]": {"system": "MOLT-4"}, "[8]": {"system": "UACC-257"}, "[9]": {"system": "COLO 205"}, "[10]": {"system": "DMS-114"}, "[11]": {"system": "HL-60"}, "[12]": {"system": "CAKI-1"}, "[13]": {"system": "OVCAR-8"}, "[14]": {"system": "HOP-18"}, "[15]": {"system": "SK-MEL-28"}, "[16]": {"system": "SK-MEL-2"}, "[17]": {"system": "IGROV-1"}, "[18]": {"system": "EKVX"}, "[19]": {"system": "A549"}, "[20]": {"system": "SW-620"}, "[21]": {"system": "RXF 393"}, "[22]": {"system": "NCI-H23"}, "[23]": {"system": "UACC-62"}, "[24]": {"system": "HOP-62"}, "[25]": {"system": "TK-10"}, "[26]": {"system": "XF498"}, "[27]": {"system": "KM12"}, "[28]": {"system": "OVCAR-3"}, "[29]": {"system": "UO-31"}, "[30]": {"system": "A498"}, "[31]": {"system": "HOP-92"}, "[32]": {"system": "K562"}, "[33]": {"system": "LXFL 529"}, "[34]": {"system": "RPMI-8226"}, "[35]": {"system": "HCT-116"}, "[36]": {"system": "DMS-273"}, "[37]": {"system": "LOX IMVI"}, "[38]": {"system": "NCI-H226"}, "[39]": {"system": "SNB-78"}, "[40]": {"system": "M19-MEL"}, "[41]": {"system": "U-251"}, "[42]": {"system": "SK-OV-3"}, "[43]": {"system": "CCRF-CEM"}, "[44]": {"system": "OVCAR-4"}, "[45]": {"system": "786-0"}, "[46]": {"system": "SF-295"}, "[47]": {"system": "ACHN"}, "[48]": {"system": "SF-539"}, "[49]": {"system": "SK-MEL-5"}, "[50]": {"system": "Malme-3M"}, "[51]": {"system": "KM-20L2"}, "[52]": {"system": "HCT-15"}, "[53]": {"system": "SN12C"}, "[54]": {"system": "NCI-H522"}, "[55]": {"system": "OVCAR-5"}}, "note": "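Each compound was tested at five concentrations against cells in 96-well plates for 48 hours. The concentration for 50% growth inhibition is given as GI50.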 The source made the active and inactive calls. Cut-off read from the data, not from the text of the source: active = GI50 up to about 1.1 µM and inactive = higher."}
{"smiles": "c1ccc2c(CNCCCCCCCCNCc3cccc4ccccc34)cccc2c1", "values": [{"measurement": "GI50", "setting": "[1]", "result": "2.11 µM (inactive)"}, {"measurement": "GI50", "setting": "[2]", "result": "1.8 µM (inactive)"}, {"measurement": "GI50", "setting": "[3]", "result": "7.52 µM (inactive)"}, {"measurement": "GI50", "setting": "[4]", "result": "1.75 µM (inactive)"}, {"measurement": "GI50", "setting": "[5]", "result": "1.48 µM (inactive)"}, {"measurement": "GI50", "setting": "[6]", "result": "1.9 µM (inactive)"}, {"measurement": "GI50", "setting": "[7]", "result": "2.02 µM (inactive)"}, {"measurement": "GI50", "setting": "[8]", "result": "1.87 µM (inactive)"}, {"measurement": "GI50", "setting": "[9]", "result": "1.96 µM (inactive)"}, {"measurement": "GI50", "setting": "[10]", "result": "1.91 µM (inactive)"}, {"measurement": "GI50", "setting": "[11]", "result": "1.86 µM (inactive)"}, {"measurement": "GI50", "setting": "[12]", "result": "1.98 µM (inactive)"}, {"measurement": "GI50", "setting": "[13]", "result": "1.86 µM (inactive)"}, {"measurement": "GI50", "setting": "[14]", "result": "5.41 µM (inactive)"}, {"measurement": "GI50", "setting": "[15]", "result": "1.9 µM (inactive)"}, {"measurement": "GI50", "setting": "[16]", "result": "1.65 µM (inactive)"}, {"measurement": "GI50", "setting": "[17]", "result": "4.55 µM (inactive)"}, {"measurement": "GI50", "setting": "[18]", "result": "6.03 µM (inactive)"}, {"measurement": "GI50", "setting": "[19]", "result": "2.2 µM (inactive)"}, {"measurement": "GI50", "setting": "[20]", "result": "1.8 µM (inactive)"}, {"measurement": "GI50", "setting": "[21]", "result": "1.74 µM (inactive)"}, {"measurement": "GI50", "setting": "[22]", "result": "3.4 µM (inactive)"}, {"measurement": "GI50", "setting": "[23]", "result": "1.8 µM (inactive)"}, {"measurement": "GI50", "setting": "[24]", "result": "16.4 µM (inactive)"}, {"measurement": "GI50", "setting": "[25]", "result": "1.66 µM (inactive)"}, {"measurement": "GI50", "setting": "[26]", "result": "1.79 µM (inactive)"}, {"measurement": "GI50", "setting": "[27]", "result": "1.82 µM (inactive)"}, {"measurement": "GI50", "setting": "[28]", "result": "10.6 µM (inactive)"}, {"measurement": "GI50", "setting": "[29]", "result": "1.87 µM (inactive)"}, {"measurement": "GI50", "setting": "[30]", "result": "14.7 µM (inactive)"}, {"measurement": "GI50", "setting": "[31]", "result": "2.49 µM (inactive)"}, {"measurement": "GI50", "setting": "[32]", "result": "0.679 µM (active)"}, {"measurement": "GI50", "setting": "[33]", "result": "1.82 µM (inactive)"}, {"measurement": "GI50", "setting": "[34]", "result": "1.67 µM (inactive)"}, {"measurement": "GI50", "setting": "[35]", "result": "1.67 µM (inactive)"}, {"measurement": "GI50", "setting": "[36]", "result": "2.01 µM (inactive)"}, {"measurement": "GI50", "setting": "[37]", "result": "1.23 µM (inactive)"}, {"measurement": "GI50", "setting": "[38]", "result": "11.7 µM (inactive)"}, {"measurement": "GI50", "setting": "[39]", "result": "2.24 µM (inactive)"}, {"measurement": "GI50", "setting": "[40]", "result": "1.73 µM (inactive)"}, {"measurement": "GI50", "setting": "[41]", "result": "1.72 µM (inactive)"}, {"measurement": "GI50", "setting": "[42]", "result": "17.1 µM (inactive)"}, {"measurement": "GI50", "setting": "[43]", "result": "1.85 µM (inactive)"}, {"measurement": "GI50", "setting": "[44]", "result": "2.3 µM (inactive)"}, {"measurement": "GI50", "setting": "[45]", "result": "1.73 µM (inactive)"}, {"measurement": "GI50", "setting": "[46]", "result": "1.88 µM (inactive)"}, {"measurement": "GI50", "setting": "[47]", "result": "2.9 µM (inactive)"}, {"measurement": "GI50", "setting": "[48]", "result": "1.63 µM (inactive)"}, {"measurement": "GI50", "setting": "[49]", "result": "1.85 µM (inactive)"}, {"measurement": "GI50", "setting": "[50]", "result": "1.95 µM (inactive)"}, {"measurement": "GI50", "setting": "[51]", "result": "1.75 µM (inactive)"}, {"measurement": "GI50", "setting": "[52]", "result": 1.73, "unit": "µM"}, {"measurement": "GI50", "setting": "[53]", "result": "6.43 µM (inactive)"}, {"measurement": "GI50", "setting": "[54]", "result": "1.79 µM (inactive)"}, {"measurement": "GI50", "setting": "[55]", "result": "2 µM (inactive)"}]}
